Measured values reported in the supplement of paper PMC10307832.

Assays:
Experiment in all cases: relative viability (nuclei count vs DMSO), 5 days (fraction); higher = more cells survive
[1] = compound: O=C(/C=C/c1cccnc1)NCCCCC1CCN(C(=O)c2ccccc2)CC1 [Daporinad] + CC(=O)Nc1cccc(-n2c(=O)n(C3CC3)c(=O)c3c(Nc4ccc(I)cc4F)n(C)c(=O)c(C)c32)c1 [Trametinib] (partner 0.02 µM)
Outline: (§1)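 One day after seeding in 1536-well plates, lung cancer cell lines were dosed by pin tool. Dosing was either single-drug or a fixed anchor-drug dose plus five library-drug doses (not always all listed) in √10 steps. After 5 days, nuclei were stained in one fix-and-stain step and counted on 4× images, and relative viability is the nuclei count of treated wells over that of vehicle wells, given as the median of duplicate plates.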

[2] = compound: O=C(/C=C/c1cccnc1)NCCCCC1CCN(C(=O)c2ccccc2)CC1 [Daporinad] + O=C(CCCCCCC(=O)Nc1ccccc1)NO [Vorinostat] (partner 1 µM)
Outline: as §1

[3] = compound: COc1cc(Nc2ncc(F)c(Nc3ccc4c(n3)NC(=O)C(C)(C)O4)n2)cc(OC)c1OC [R406] + C[C@@H](Oc1cc(-c2cnn(C3CCNCC3)c2)cnc1N)c1c(Cl)ccc(F)c1Cl [Crizotinib] (partner 1 µM)
Outline: as §1

[4] = compound: O=C(/C=C/c1cccnc1)NCCCCC1CCN(C(=O)c2ccccc2)CC1 [Daporinad] + CC(=O)c1c(C)c2cnc(Nc3ccc(N4CCNCC4)cn3)nc2n(C2CCCC2)c1=O [Palbociclib] (partner 0.5 µM)
Outline: as §1

**Q.** Which relative viability ([1]; first compound 0.0005 µM) does the source give for UMC-11 here?
**A.** Its relative viability is 0.645.

**Q.** What about the relative viability ([1]; first compound 0.001581 µM) of the same cell line?
**A.** Its relative viability is 0.926.

**Q.** What about the relative viability ([1]; first compound 0.005 µM) of the same cell line?
**A.** The relative viability was 0.775.

**Q.** What about the relative viability ([1]; first compound 0.01581 µM) of the same cell line?
**A.** Its relative viability is 1.14.

**Q.** What about the relative viability ([2]; first compound 0.0005 µM) of the same cell line?
**A.** The relative viability was 0.319.

**Q.** And the relative viability ([2]; first compound 0.001581 µM)?
**A.** The relative viability was 0.384.

**Q.** What about the relative viability ([2]; first compound 0.005 µM) of the same cell line?
**A.** Its relative viability is 0.426.

**Q.** What about the relative viability ([2]; first compound 0.01581 µM) of the same cell line?
**A.** The relative viability was 0.413.

**Q.** And the relative viability ([3]; first compound 0.08 µM)?
**A.** Its relative viability is 0.628.

**Q.** And the relative viability ([3]; first compound 0.253 µM)?
**A.** Its relative viability is 0.88.

**Q.** What about the relative viability ([3]; first compound 0.8 µM) of the same cell line?
**A.** The relative viability was 0.663.

**Q.** And the relative viability ([3]; first compound 2.53 µM)?
**A.** Its relative viability is 0.392.

**Q.** And the relative viability ([3]; first compound 8 µM)?
**A.** The relative viability was 0.119.

**Q.** What about the relative viability ([4]; first compound 0.0005 µM) of the same cell line?
**A.** Its relative viability is 0.385.

**Q.** And the relative viability ([4]; first compound 0.001581 µM)?
**A.** The relative viability was 0.338.

**Q.** What about the relative viability ([4]; first compound 0.005 µM) of the same cell line?
**A.** Its relative viability is 0.342.

**Q.** What about the relative viability ([4]; first compound 0.01581 µM) of the same cell line?
**A.** Its relative viability is 0.395.
